According to US4960788A, “Pyrrolidone-2 compounds and their use for central analgesic activity” (priority 1988, dated 1990):
Like-named read-outs stand apart in the source and are kept apart here.

Key:
[1] = Jumping test on mouse (capacity to induce physical dependence); assay type: in vivo; details: Naloxone 10 mg/kg i.p. 4 hours after last administration, 15 minutes
Protocol: The compounds object of the present invention were tested in vivo in order to evaluate the capacity to induce physical dependence. The Jumping test described by Sealens et al. [Committee on Problems of Drug Dependence, vol. 2, (1971), page 1310] was used.
After 4 hours from the last administration, the animals were treated with Naloxone (10 mg/kg i.p.) and the number of jumps taken by the animals during the period of 15 minutes after the administration of Naloxone was counted.
In table 4, for exemplifying purposes, the percentage of jumping animals obtained for a compound of formula I is reported.

[2] = system: guinea-pig isolated ileum; assay: morphine-like activity on guinea-pig isolated ileum (inhibition of electrically induced contractions); assay type: cell-based; details: inhibition of 50% of contraction, electric stimulation 0.1 Hz-0.5 msec.
Protocol: The experiments were carried out according to the method described by Goldstein and Schultz (Br. J. Pharmacol., 48, 655, 1975) which is based on the capacity of the molecules showing an agonist activity on opioid receptors to inhibit the contractions of smooth muscles of guinea-pig ileum induced by electric stimulation (0.1 Hz-0.5 msec.).
The pharmacological activity was expressed as the necessary concentration (mM) to inhibit 50% of contraction (IC50).

[3] = hot plate test on mouse (central analgesic activity); assay type: in vivo
Protocol: The compounds object of the present invention were tested in vivo in order to evaluate the central analgesic activity.
The hot plate test was carried out on mouse according to the method described by Eddy et al. (J. Pharmacol., 98, 121, 1950). The compounds were administered by systemic route (oral and subcutaneous). The analgesic activity was expressed as 50% effective dose (ED50).
In table 3 the results obtained for some representative compounds of formula I are reported.

opioid receptors = molecular target: T1, opioid receptors (Rattus norvegicus, UniProt P33535); assay: competition for binding of [^3 H]-dihydromorphine (DHM) to opioid receptors in rat-brain homogenate; set-up: species or system rat (Sprague-Dawley); details: 1 nM ^3 H-DHM; 25° C., 30 minutes; read-out: IC50 for specific binding of ^3 H-DHM to rat-brain homogenate
T1 construct: opioid receptors in rat-brain homogenate; from tissue; host or cells: rat brain (Sprague-Dawley) without cerebellum, homogenate / crude membrane pellet
Protocol: (1) Evaluation of the competition for binding of [^3 H]-dihydromorphine(DHM) to opioid receptors in rat-brain homogenate
The experiments were carried out according to the method described by Simon et al. [Proc. Nat. Acad. Sci. U.S.A., 70, pp. 1947-1949, (1973)].
Sprague-Dawley rats weighing about 150 g were used.
The animals were decapitated and, after removal of cerebellum, the brains were homogenized in […] Tris-HCl buffer (pH 7.4) containing 0.32M saccharose. The homogenate was centrifugated at 1000 rpm for 10 minutes and the supranatant was centrifugated again at 20000 rpm for 20 minutes.
The obtained pellet was suspended in a homogenization buffer without saccharose up to a protein concentration of 2 mg/ml. The incubating system consisted in: 500 μl of homogenate (1 mg of proteins), 390 μl of 50 mM Tris-HCl buffer (pH 7.4), 100 μl of a solution at different concentrations of the compounds of formula I or of 10 μM Naloxone for the determination of the aspecific binding and 10 μl of ^3 H-DHM (specific activity […], 1 nM final concentration). The mixture was incubated at 25° C. for 30 minutes after the addition of the radioactive binder.
Then, the samples were filtered through Whatman GF/B filters, washed twice with 3 ml volumes of buffer and dried in oven at 70° C. Filters were put in scintillation vials with 15 ml of Filter Count (Packard) scintillation cocktail and the radioactivity was evaluated by a Packard Tricarb 4530 scintillation counter with 60% efficiency.
The activity was expressed as inhibiting concentration (IC50) 50% of the binding of ^3 H-DHM.

[4] = oral, mouse hot plate test, read-out: Analgesic activity ED50 (C.L. 95%), os
[5] = sc, subcutaneous, mouse hot plate test, read-out: Analgesic activity ED50 (C.L. 95%), s.c.

T1 sequence (P33535 whole entry): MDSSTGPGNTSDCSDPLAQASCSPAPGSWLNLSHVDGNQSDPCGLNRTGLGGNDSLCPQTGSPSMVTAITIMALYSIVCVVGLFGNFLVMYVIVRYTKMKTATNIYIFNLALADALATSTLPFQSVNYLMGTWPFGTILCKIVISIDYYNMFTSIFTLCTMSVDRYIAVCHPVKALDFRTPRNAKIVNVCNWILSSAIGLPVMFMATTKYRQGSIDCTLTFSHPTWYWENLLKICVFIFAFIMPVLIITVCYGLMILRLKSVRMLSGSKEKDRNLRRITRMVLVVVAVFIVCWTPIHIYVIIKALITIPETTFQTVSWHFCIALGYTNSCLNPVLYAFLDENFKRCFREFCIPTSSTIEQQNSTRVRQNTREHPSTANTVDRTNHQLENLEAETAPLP

| SMILES | IC50 ([2]; Cavia porcellus) | ED50 [3, 5] | further results |
| --- | --- | --- | --- |
| CC[C@@H](C)N(C[C@H](O)[C@@H]1CCC(=O)N1Cc1ccccc1Cl)[C@H](C)CC [Compound 1, (1S)-1-[(5S)-1-[(2-chlorophenyl)methyl]-2-oxo-5-pyrrolidinyl]-2-[(2R,2'R)-disec.butylamino]ethanol] | 0.03 nM | 0.011 mg/kg | Percentage of jumping animals (total dose 3.8 mg/kg i.p.) ([1]; total dose 3.8 mg/kg i.p.): 5%; ED50 [3, 4]: 2.6 mg/kg; IC50 (opioid receptors): 0.9 nM |
| CC[C@@H](C)N(C[C@H](O)[C@H]1CCC(=O)N1Cc1ccccc1Cl)[C@H](C)CC [Compound 3, (1S)-1-[(5R)-1-[(2-chlorophenyl)methyl]-2-oxo-5-pyrrolidinyl]-2-[(2R,2'R)-disec.butylamino]ethanol] | 4.6 nM | – | – |
| CC[C@@H](C)N(C[C@@H](O)[C@H]1CCC(=O)N1Cc1ccccc1Cl)[C@H](C)CC [Compound 4, (1R)-1-[(5R)-1-[(2-chlorophenyl)methyl]-2-oxo-5-pyrrolidinyl]-2-[(2R,2'R)-disec.butylamino]ethanol] | 8.7 nM | 3.8 mg/kg | – |
| CC[C@H](C)N(C[C@@H](O)[C@@H]1CCC(=O)N1Cc1ccccc1Cl)[C@@H](C)CC [Compound 5, (1R)-1-[(5S)-1-[(2-chlorophenyl)methyl]-2-oxo-5-pyrrolidinyl]-2-[(2S,2'S)-disec.butylamino]ethanol] | 50 nM | – | – |
| CC[C@@H](C)N(C[C@@H](O)[C@@H]1CCC(=O)N1Cc1ccccc1Cl)[C@@H](C)CC [Compound 7, (1R)-1-[(5S)-1-[(2-chlorophenyl)methyl]-2-oxo-5-pyrrolidinyl]-2-[(2R,2'S)-disec.butylamino]ethanol] | 70 nM | – | – |
| CC[C@@H](C)N(C[C@H](O)[C@@H]1CCC(=O)N1Cc1ccccc1Cl)[C@@H](C)CC [Compound 8, (1S)-1-[(5S)-1-[(2-chlorophenyl)methyl]-2-oxo-5-pyrrolidinyl]-2-[(2R,2'S)-disec.butylamino]ethanol] | 44 nM | 1.4 mg/kg | – |
| CC[C@@H](C)N(C[C@@H](O)[C@H]1CCC(=O)N1Cc1ccccc1Cl)[C@@H](C)CC [Compound 12, (1R)-1-[(5R)-1-[(2-chlorophenyl)methyl]-2-oxo-5-pyrrolidinyl]-2-[(2R,2'S)-disec.butylamino]ethanol] | 83 nM | – | – |
| CC[C@@H](C)N(C[C@H](O)[C@@H]1CCC(=O)N1Cc1ccccc1)[C@H](C)CC [Compound 14, (1S)-1-[(5S)-2-oxo-1-(phenylmethyl)-5-pyrrolidinyl]-2-[(2R,2'R)-disec.butylamino]ethanol] | 0.43 nM | 0.04 mg/kg | ED50 [3, 4]: 6.5 mg/kg; IC50 (opioid receptors): 3.3 nM |
| CC[C@@H](C)N(C[C@@H](O)[C@@H]1CCC(=O)N1Cc1ccccc1F)[C@H](C)CC [Compound 15, (1R)-1-[(5S)-1-[(2-fluorophenyl)methyl]-2-oxo-5-pyrrolidinyl]-2-[(2R,2'R)-disec.butylamino]ethanol] | 40 nM | – | – |
| CC[C@@H](C)N(C[C@H](O)[C@@H]1CCC(=O)N1Cc1ccccc1F)[C@H](C)CC [Compound 16, (1S)-1-[(5S)-1-[(2-fluorophenyl)methyl]-2-oxo-5-pyrrolidinyl]-2-[(2R,2'R)-disec.butylamino]ethanol] | 0.29 nM | 0.03 mg/kg | ED50 [3, 4]: 5.8 mg/kg; IC50 (opioid receptors): 2.5 nM |
| CC[C@@H](C)N(C[C@H](O)[C@@H]1CCC(=O)N1Cc1cccc(OC)c1)[C@H](C)CC [Compound 18, (1S)-1-[(5S)-1-[(3-methoxyphenyl)methyl]-2-oxo-5-pyrrolidinyl]-2-[(2R,2'R)-disec.butylamino]ethanol] | 0.28 nM | 0.07 mg/kg | – |
| CC[C@@H](C)N(C[C@@H](O)[C@@H]1CCC(=O)N1Cc1ccc(Cl)c(Cl)c1)[C@H](C)CC [Compound 19, (1R)-1-[(5S)-1-[(3,4-dichlorophenyl)methyl]-2-oxo-5-pyrrolidinyl]-2-[(2R,2'R)-disec.butylamino]ethanol] | 0.77 nM | – | – |
| CC[C@@H](C)N(C[C@H](O)[C@@H]1CCC(=O)N1Cc1ccc(Cl)c(Cl)c1)[C@H](C)CC [Compound 20, (1S)-1-[(5S)-1-[(3,4-dichlorophenyl)methyl]-2-oxo-5-pyrrolidinyl]-2-[(2R,2'R)-disec.butylamino]ethanol] | 0.23 nM | 0.28 mg/kg | – |
| CC[C@@H](C)N(C[C@H](O)[C@@H]1CCC(=O)N1Cc1cc(Br)no1)[C@H](C)CC [Compound 22, (1S)-1-[(5S)-1-(3-bromo-5-isoxazolylmethyl)-2-oxo-5-pyrrolidinyl]-2-[(2R,2'R)-disec.butylamino]ethanol] | 4.96 nM | 1 mg/kg | IC50 (opioid receptors): 9.4 nM |
| CC[C@@H](C)N(C[C@H](O)[C@@H]1CCC(=O)N1Cc1cccc(C(F)(F)F)c1)[C@H](C)CC [Compound 24, (1S)-1-[(5S)-2-oxo-1-[(3-trifluoromethylphenyl)methyl]-5-pyrrolidinyl]-2-[(2R,2'R)-disec.butylamino]ethanol] | 2.9 nM | 0.5 mg/kg | – |
| CC[C@@H](C)N(C[C@H](O)[C@@H]1CCC(=O)N1Cc1ccc(Br)cc1)[C@H](C)CC [Compound 26, (1S)-1-[(5S)-1-[(4-bromophenyl)methyl]-2-oxo-5-pyrrolidinyl]-2-[(2R,2'R)-disec.butylamino]ethanol] | 0.04 nM | 0.03 mg/kg | – |
| CC(C)N(C[C@H](O)[C@@H]1CCC(=O)N1Cc1ccccc1Cl)C(C)C [Compound 34, (1S)-1-[(5S)-1-[(2-chlorophenyl)methyl]-2-oxo-5-pyrrolidinyl]-2-diisopropylaminoethanol] | 44.7 nM | – | – |
| O=C1CC[C@@H]([C@@H](O)CN(C2CCCC2)C2CCCC2)N1Cc1ccccc1Cl [Compound 36, (1S)-1-[(5S)-1-[(2-chlorophenyl)methyl]-2-oxo-5-pyrrolidinyl]-2-dicyclopentylaminoethanol] | 4.06 nM | 4.7 mg/kg | – |
| CC[C@@H](C)N(C[C@H](O)[C@@H]1CCC(=O)N1Cc1ccccc1Cl)C(C)C [Compound 38, (1S)-1-[(5S)-1-[(2-chlorophenyl)methyl]-2-oxo-5-pyrrolidinyl]-2-[[(R)-sec.butyl]isopropylamino]ethanol] | 21.5 nM | 1.1 mg/kg | – |
| CCC(CC)N(C[C@H](O)[C@@H]1CCC(=O)N1Cc1ccccc1Cl)C(CC)CC [Compound 40, (1S)-1-[(5S)-1-[(2-chlorophenyl)methyl]-2-oxo-5-pyrrolidinyl]-2-[bis(1-ethylpropyl)amino]ethanol] | 60 nM | – | – |
| CC[C@@H](C)N(CC(O)C1CCCC(=O)N1Cc1ccccc1Cl)[C@H](C)CC (stereo partly drawn) [Compound 43, 1-[2-[(2-chlorophenyl)methyl]-2-oxo-6-piperidinyl]-2-[(2R,2'R)-disec.butylamino]ethanol] | – | – | IC50 [2]: 0.5 nM; Analgesic activity ED50 (C.L. 95%), s.c. ([3]; subcutaneous, mouse hot plate test): 0.1 mg/kg |
| CN1CC[C@]23c4c5ccc(O)c4O[C@H]2[C@@H](O)C=C[C@H]3[C@H]1C5 [morphine, reference compound] | – | – | Percentage of jumping animals (total dose 156.0 mg/kg i.p.) ([1]; total dose 156.0 mg/kg i.p.): 80%; ED50 ([3]; Mus musculus, po, read-out: Analgesic activity ED50 (C.L. 95%), os): 18 mg/kg; ED50 ([3]; Mus musculus, sc, read-out: Analgesic activity ED50 (C.L. 95%), s.c.): 3.5 mg/kg |
